Values belong to the molecule of their own block, whether it stands above or below them.
Tests used:
Type in all cases: biochemical
[1] = biological target: SIK1 (Homo sapiens (Human), UniProt P57059); test: Phosphorylation assay SIK1 (RapidFire mass spectrometry); conditions: 5 nM SIK1, CHK-peptide, ATP, 30 min pre-incubation, 45 min incubation; read-out: SIK1 RF IC50
Procedure: (§1) In the presence of SIK2 (resp. SIK1 or SIK3) and ATP the CHK-peptide ([…] with C-terminal arginine amide modification) were phosphorylated at one of the four feasible serine's. Only one phosphorylation is observed under the assay conditions. 60 nl of each compound dilution series (12 point; dilution factor 3, generally 30 μM to 170 pM) in DMSO were transferred by acoustic dispensing to the assay plate and 30 minutes pre-incubated (ambient temperature) after the addition of 5 μl SIK1 (5 nM) resp. 5 μl SIK2 (0.5 nM) or 7 μl SIK3 (1.5 nM) in assay-buffer (12.5 mM HEPES (pH 7.0), 10 mM magnesium acetate, 0.005% BSA). 10 μM CHK-peptide solution and 5 μl of 100 μM ATP for SIK1 & SIK2 resp. 3 μl for SIK3 in assay-buffer were added and incubated ambient for 45 minutes. 40 μl of 0.125% formic acid in water were added to quench the reaction. RapidFire (RF) Mass Spectrometry was utilized for data generation as described below. The multiple charged species (3-5 charges) for the phosphorylated and non-phosphorylated form measured by MRM (Multiple Reaction Monitoring; API5000 or 6500+) or EIC (Extracted Ion Current; QToF) were summed up and the ratio calculated (sum phosphorylated species/sum all species) for data evaluation. Normalization was performed by Genedata software based on the non-inhibition control DMSO and the commercially available SIK inhibitor @1 μM YKL-05-099 (CAS number 1936529-65-5). The results of the assay are expressed in half-maximal inhibitory concentrations (IC50s) and are summarized below in Table 1.
(§2) Samples were aspirated by vacuum for max. 600 ms and loaded to C4-cartridge (Agilent; #G9203A) for 3000 ms@1.5 ml/min with 0.1% formic acid in water. Afterwards samples were transferred to the API5000 (API6500+) or QToF mass spectrometer for 4000 ms@1.25 ml/min with 90% acetonitrile; 10% water; 0.007% TFA; 0.093 formic acid. The cartridge was reconditioned for additional 500 ms with 0.1% formic acid in water.
(§3) All MS analyses using the following MS-setup in MRM mode: Electrospray positive; Ion Spray Voltage: 4000V; Temperature: 550° C.; Collision Gas: 5; Curtain Gas: 15; Gas 1: 40; Gas 2: 42; EP: 10. DP=declustering potential; CE=collision energy; CXP=cell exit potential.
(§4) All MS analyses using the following MS-setup in Mode MS: Dual AJS Electrospray positive; VCap: 3000V; Drying & Sheath gas: 340° C.@81/min; Nebulizer: 60 psig; Nozzle Voltage: 2000V; Fragmentor: 130V; Skimmer: 35V; Oct1 RF Vpp: 700V; Ref masses on@5spectra/s

[2] = biological target: SIK3 (Homo sapiens (Human), UniProt Q9Y2K2); test: Phosphorylation assay SIK3 (RapidFire mass spectrometry); conditions: 1.5 nM SIK3, CHK-peptide, ATP, 30 min pre-incubation, 45 min incubation; read-out: SIK3 RF IC50
Chain of SIK3 (Q9Y2K2 whole entry): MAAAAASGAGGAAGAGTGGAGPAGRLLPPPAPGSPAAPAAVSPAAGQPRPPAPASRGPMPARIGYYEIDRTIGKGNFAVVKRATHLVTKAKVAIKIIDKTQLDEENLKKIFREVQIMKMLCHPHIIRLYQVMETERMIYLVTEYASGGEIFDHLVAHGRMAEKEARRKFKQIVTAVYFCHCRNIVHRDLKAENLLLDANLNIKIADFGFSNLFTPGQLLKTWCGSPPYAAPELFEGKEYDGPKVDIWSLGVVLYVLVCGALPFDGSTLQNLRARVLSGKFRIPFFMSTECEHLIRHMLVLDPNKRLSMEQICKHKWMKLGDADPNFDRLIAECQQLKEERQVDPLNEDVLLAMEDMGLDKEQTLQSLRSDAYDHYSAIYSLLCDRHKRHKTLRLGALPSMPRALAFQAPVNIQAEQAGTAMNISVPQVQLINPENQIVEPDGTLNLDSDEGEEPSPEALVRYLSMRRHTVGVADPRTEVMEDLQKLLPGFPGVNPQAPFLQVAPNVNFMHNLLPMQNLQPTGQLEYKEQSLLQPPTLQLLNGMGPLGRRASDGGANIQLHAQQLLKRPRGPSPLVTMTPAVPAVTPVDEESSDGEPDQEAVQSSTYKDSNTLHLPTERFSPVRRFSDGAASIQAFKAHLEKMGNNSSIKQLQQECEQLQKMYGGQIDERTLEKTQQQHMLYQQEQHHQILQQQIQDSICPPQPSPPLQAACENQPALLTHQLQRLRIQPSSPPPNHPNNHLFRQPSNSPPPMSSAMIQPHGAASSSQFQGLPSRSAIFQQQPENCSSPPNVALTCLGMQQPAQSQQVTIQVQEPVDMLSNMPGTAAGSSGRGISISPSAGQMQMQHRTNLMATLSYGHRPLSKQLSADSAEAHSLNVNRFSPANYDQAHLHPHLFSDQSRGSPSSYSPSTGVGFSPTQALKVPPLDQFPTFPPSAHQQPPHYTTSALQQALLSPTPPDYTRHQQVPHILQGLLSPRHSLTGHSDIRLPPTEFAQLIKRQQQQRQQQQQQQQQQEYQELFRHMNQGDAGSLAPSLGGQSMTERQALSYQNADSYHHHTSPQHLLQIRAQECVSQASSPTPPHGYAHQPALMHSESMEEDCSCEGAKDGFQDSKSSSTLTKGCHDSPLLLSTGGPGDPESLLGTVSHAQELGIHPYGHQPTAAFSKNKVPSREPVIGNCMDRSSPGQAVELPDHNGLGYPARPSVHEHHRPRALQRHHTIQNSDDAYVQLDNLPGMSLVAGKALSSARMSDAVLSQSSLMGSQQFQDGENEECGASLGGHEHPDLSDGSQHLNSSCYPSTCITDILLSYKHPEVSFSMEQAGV
Procedure: as §1, §2, §3, §4

[3] = biological target: SIK2 (Homo sapiens (Human), UniProt Q9H0K1); test: Phosphorylation assay SIK2 (RapidFire mass spectrometry); conditions: 0.5 nM SIK2, CHK-peptide, ATP, 30 min pre-incubation, 45 min incubation; read-out: SIK2 RF IC50
Chain of SIK2 (Q9H0K1 whole entry): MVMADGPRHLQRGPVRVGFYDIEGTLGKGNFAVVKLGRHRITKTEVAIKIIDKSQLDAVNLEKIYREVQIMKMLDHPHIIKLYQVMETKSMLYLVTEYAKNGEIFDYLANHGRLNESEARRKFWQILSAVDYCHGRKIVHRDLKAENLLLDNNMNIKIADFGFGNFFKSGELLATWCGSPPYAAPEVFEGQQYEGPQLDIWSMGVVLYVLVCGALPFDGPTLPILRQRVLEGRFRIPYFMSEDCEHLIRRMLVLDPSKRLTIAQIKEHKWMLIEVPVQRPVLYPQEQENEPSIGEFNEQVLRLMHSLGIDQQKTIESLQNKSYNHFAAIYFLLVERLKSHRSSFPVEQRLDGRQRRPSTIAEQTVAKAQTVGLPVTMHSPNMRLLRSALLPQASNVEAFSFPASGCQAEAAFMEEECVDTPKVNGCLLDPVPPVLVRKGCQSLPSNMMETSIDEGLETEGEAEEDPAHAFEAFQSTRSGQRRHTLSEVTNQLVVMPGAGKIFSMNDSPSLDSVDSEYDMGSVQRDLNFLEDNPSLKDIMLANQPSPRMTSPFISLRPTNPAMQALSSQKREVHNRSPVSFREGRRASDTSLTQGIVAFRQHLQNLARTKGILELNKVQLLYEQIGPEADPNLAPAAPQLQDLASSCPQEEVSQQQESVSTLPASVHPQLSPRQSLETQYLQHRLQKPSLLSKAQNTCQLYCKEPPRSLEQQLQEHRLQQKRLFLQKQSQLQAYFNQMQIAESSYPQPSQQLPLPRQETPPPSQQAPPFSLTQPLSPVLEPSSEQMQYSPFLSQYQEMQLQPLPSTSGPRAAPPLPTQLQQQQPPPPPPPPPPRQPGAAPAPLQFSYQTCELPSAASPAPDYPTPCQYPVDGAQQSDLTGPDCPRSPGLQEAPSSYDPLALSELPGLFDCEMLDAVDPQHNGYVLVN
Procedure: as §1, §2, §3, §4

Chain of SIK1 (P57059 whole entry): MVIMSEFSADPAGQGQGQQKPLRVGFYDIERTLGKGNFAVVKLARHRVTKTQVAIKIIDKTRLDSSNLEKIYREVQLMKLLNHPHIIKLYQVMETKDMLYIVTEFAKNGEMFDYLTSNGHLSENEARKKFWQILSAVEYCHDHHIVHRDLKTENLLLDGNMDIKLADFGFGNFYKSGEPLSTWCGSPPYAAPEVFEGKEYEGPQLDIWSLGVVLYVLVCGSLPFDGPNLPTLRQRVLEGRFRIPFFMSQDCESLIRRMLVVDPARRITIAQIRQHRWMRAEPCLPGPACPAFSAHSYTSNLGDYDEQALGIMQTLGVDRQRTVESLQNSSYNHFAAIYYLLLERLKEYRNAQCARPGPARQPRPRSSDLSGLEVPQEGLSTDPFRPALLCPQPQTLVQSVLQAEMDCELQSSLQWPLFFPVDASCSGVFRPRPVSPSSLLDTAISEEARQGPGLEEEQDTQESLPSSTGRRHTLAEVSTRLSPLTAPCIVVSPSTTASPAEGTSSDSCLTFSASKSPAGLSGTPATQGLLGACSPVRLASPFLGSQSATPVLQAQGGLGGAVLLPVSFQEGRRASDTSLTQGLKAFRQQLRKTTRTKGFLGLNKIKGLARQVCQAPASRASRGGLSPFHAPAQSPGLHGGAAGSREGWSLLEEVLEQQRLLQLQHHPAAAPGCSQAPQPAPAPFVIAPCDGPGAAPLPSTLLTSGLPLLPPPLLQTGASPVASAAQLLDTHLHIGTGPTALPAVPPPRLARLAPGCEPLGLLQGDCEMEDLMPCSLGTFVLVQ

SMILES: Cc1ccc(Nc2cnc3c(-c4ccc(C(C)O)c(-n5nc(C#N)cc5C)c4)cnn3c2)nn1 (stereo not drawn) [Example 2, 1-[2-(1-Hydroxyethyl)-5-[6-[(6-methylpyridazin-3-yl)amino]pyrazolo[1,5-a]pyrimidin-3-yl]phenyl]-5-methyl-pyrazole-3-carbonitrile]
IC50 [1]: 616 nM | IC50 [2]: 0.3 nM | IC50 [3]: 1 nM

SMILES: Cc1cc(C(F)F)nn1-c1cc(-n2cnc3cc(Nc4cccnn4)cnc32)ccc1C(C)O (stereo not drawn) [Example 3, 1-[2-[3-(Difluoromethyl)-5-methyl-pyrazol-1-yl]-4-[6-(pyridazin-3-ylamino)imidazo[4,5-b]pyridin-3-yl]phenyl]ethanol]
IC50 [1]: 16600 nM | IC50 [2]: 27 nM | IC50 [3]: 207 nM

SMILES: Cc1ccc(Oc2cnc3c(-c4ccc(C(C)O)c(-n5nc(C#N)cc5C)c4)cnn3c2)nn1 (stereo not drawn) [Example 5, 1-[2-(1-Hydroxyethyl)-5-[6-(6-methylpyridazin-3-yl)oxypyrazolo[1,5-a]pyrimidin-3-yl]phenyl]-5-methylpyrazole-3-carbonitrile]
IC50 [1]: 14600 nM | IC50 [2]: 12 nM | IC50 [3]: 106 nM

SMILES: Cc1ccc(Nc2cnc3c(c2)ncn3-c2cc(F)c(C(C)O)c(-n3nc(C#N)cc3C)c2)nn1 (stereo not drawn) [Example 7, 1-[3-Fluoro-2-(1-hydroxyethyl)-5-[6-[(6-methylpyridazin-3-yl)amino]imidazo[4,5-b]pyridin-3-yl]phenyl]-5-methyl-pyrazole-3-carbonitrile]
IC50 [1]: 6010 nM | IC50 [2]: 6 nM | IC50 [3]: 21 nM

SMILES: Cc1ccc(Nc2cnc3c(-c4ccc(C(C)O)c(-n5nc(C(F)F)cc5C)c4)cnn3c2)nn1 (stereo not drawn) [Example 8, 1-[2-[3-(Difluoromethyl)-5-methyl-pyrazol-1-yl]-4-[6-[(6-methylpyridazin-3-yl)amino]pyrazolo[1,5-a]pyrimidin-3-yl]phenyl]ethanol]
IC50 [1]: ≥ 30000 nM | IC50 [2]: 4 nM | IC50 [3]: 52 nM

Second part, the molecule after the results:

IC50 [1]: 2800 nM | IC50 [2]: 2 nM | IC50 [3]: 16 nM
SMILES: Cc1ccc(Nc2cnc3c(c2)ncn3-c2ccc(C(C)O)c(-n3nc(C#N)cc3C)c2)nn1 (stereo not drawn) [Example 1, 1-[2-(1-Hydroxyethyl)-5-[6-[(6-methylpyridazin-3-yl)amino]imidazo[4,5-b]pyridin-3-yl]phenyl]-5-methyl-pyrazole-3-carbonitrile]

IC50 [1]: 18600 nM | IC50 [2]: 207 nM | IC50 [3]: 7 nM
SMILES: COc1nc2c(cc1Nc1nnc(C)cc1C(=O)N(C)C)ncn2-c1ccc(C#N)c(-n2nc(OC(F)F)cc2C)c1 [Example 4, 3-[[3-[4-cyano-3-[3-(difluoromethoxy)-5-methyl-pyrazol-1-yl]phenyl]-5-methoxy-imidazo[4,5-b]pyridin-6-yl]amino]-N,N,6-trimethyl-pyridazine-4-carboxamide]

IC50 [1]: ≥ 30000 nM | IC50 [2]: 366 nM | IC50 [3]: 152 nM
SMILES: Cc1cc(C(=O)N(C)C)c(Nc2cnc3c(c2)ncn3-c2ccc(C#N)c(-n3nc(OC(F)F)cc3C)c2)nn1 [Example 6, 3-[[3-[4-Cyano-3-[3-(difluoromethoxy)-5-methyl-pyrazol-1-yl]phenyl]imidazo[4,5-b]pyridin-6-yl]amino]-N,N,6-trimethyl-pyridazine-4-carboxamide]

— patent US20250127780A1, “IMIDAZO[4,5-B]PYRIDINE AND PYRAZOLO[1,5-A]PYRIMIDINE DERIVATIVES AS SIK MODULATORS FOR THE TREATMENT OF RHEUMATOID ARTHRITIS” (Hoffmann-La Roche Inc., priority 2022, published 2025)
